In patent US8481526B2, “Fluoroquinolone carboxylic acid molecular crystals” (Bausch & Lomb Incorporated, priority 2009, dated 2013):
In brackets after ≈: the same amount, converted by molar mass. Where a name gives a salt, the structure may show the parent alone. Read-outs that look alike come from different tables or passages of the source. Values belong to the molecule of their own block, whether it stands above or below them.

Legend:
Format in all cases: physicochemical
[1] = Moisture sorption analysis (VTI moisture sorption balance); settings: 25° C.; for Hygroscopicity / moisture sorption behaviour: 10% to 90% RH
Method: Moisture uptake and loss was monitored as a function of relative humidity using a VTI, moisture sorption balance. A 30-40 mg sample was loaded into a tared glass sample holder. The initial weight of the sample was accurately recorded. The sample was then dried under a steady stream of nitrogen for 2 hours at 40° C. After initial drying, the sample mass was equilibrated with dry nitrogen at 25° C. and the sample was exposed to progressive stepwise increases in humidity under controlled conditions. The sample was equilibrated for two hours at each new relative humidity. The moisture sorption behavior was monitored at 10% to 90% RH in 10% RH intervals and desorption was monitored from 90% to 10% RH. The % moisture gain/loss was recorded vs. the % RH.

[2] = pH-dependence of solubility in distilled water (HPLC); settings: for solubility: distilled water, aqueous buffer, thermodynamic from solid
Method: (§1) A reversed phase gradient HPLC method was used for the analysis of besifloxacin solubility samples. The conditions are listed below:
(§2) The solubility of besifloxacin HCl, lot 050956330, was determined in distilled water as a function of pH by adjusting the pH with 1 N NaOH. Suspensions of the drug substance (about 50-150 mg in 10 mL distilled water) were equilibrated for 72-96 hours using a Burrell shaker. Laboratory temperature was 22±2° C. The pH of the suspensions was measured in the presence of excess solid prior to sampling. The samples were centrifuged in an Enprotech ISS-I13 centrifuge at 10,000 RPM for 15 minutes or filtered through 0.45[…] or PVDF filters. When samples were filtered, a volume of filtrate was discarded to allow saturation of filters. The supernatant or the filtrate was diluted as needed using the HPLC diluent prior to analysis. Sample concentration was monitored at varying time intervals to ensure complete equilibration. Also, sample concentration was reported as besifloxacin free base concentration rather than HCl salt.

[3] = Equilibrium solubility in various solvents (HPLC); settings: 22° C. ± 2° C.; for solubility: solubility of free base
[4] = XRPD of excess solids isolated from equilibrated solubility samples (form conversion); settings: for Form conversion in aqueous media: pH>4
Method: Approximately 20-100 mg of powder was loaded onto a low background sample holder. Samples were analyzed on a Rigaku Miniflex (scanning configuration) and scanned from 5-60°, 2-theta at a rate of 1°2θ/minute with a sampling rate of 0.02 seconds. Patterns were analyzed using Jade software version 7.5, provided by Materials Data Inc.
Excess solids were isolated from equilibrated samples and analyzed by XRPD. […] As discussed below (XRPD section), this phase was identified as the crystalline besifloxacin free base.

[5] = Equilibrium solubility in various solvents (HPLC); settings: Water, 22° C. ± 2° C.; for solubility: saturated solution pH 3.6 (HCl salt), 8.1 (free base), solubility of free base
Method: as §1
The solubility of besifloxacin HCl was evaluated in several organic solvents. An excess of drug substance was equilibrated with 10 mL of each solvent for 24-48 hours at room temperature (24±3° C.) using either a small magnetic stirrer or a Burrell Wrist Action shaker. Samples were inspected visually, and if needed, more drug substance was added until excess solid persisted after stirring. The samples were then filtered through 0.45 μm Nylon or PVDF filters or centrifuged at 10,000 RPM for 15 minutes. The filtrate or the supernatant was diluted as needed using the HPLC diluent and analyzed by HPLC. When solubility was greater than 100 mg/mL, no attempt was made to determine the equilibrium solubility and the compound was described as “freely soluble” as per the USP definition.
as §2

[6] = pKa and intrinsic solubility from fit of pH-solubility profile to Henderson-Hasselbach equation; settings: for solubility: aqueous buffer; for pKa: estimated from fit of pH-solubility profile
From the text: To determine pKas that were consistent with observed solubility behavior, the pH dependent solubility was fitted to the following expression: S=So*(10^pKa1-pH+10^pH-pKa2+1) where S=solubility So=intrinsic solubility (total of zwitterionic and neutral species) pKa1=dissociation constant for the carboxylic acid moiety pKa2=dissociation constant for the primary ammonium ion moiety

[7] = Acetonitrile, listed as Free base
[8] = Isopropanol, listed as Free base

Hygroscopicity / moisture sorption behaviour ([1]; listed as Besifloxacin HCl): not hygroscopic
solubility ([2]; pH 3.54, water, 22° C. ± 2° C., reported as free base concentration, read-out: Solubility): 10600 µg/mL
solubility ([2]; pH 3.58, water, 22° C. ± 2° C., reported as free base concentration, read-out: Solubility): 10200 µg/mL
solubility ([2]; pH 3.72, water, 22° C. ± 2° C., reported as free base concentration, read-out: Solubility): 10300 µg/mL
solubility ([2]; pH 3.95, water, 22° C. ± 2° C., reported as free base concentration, read-out: Solubility): 4180 µg/mL
solubility ([2]; pH 4.58, water, 22° C. ± 2° C., reported as free base concentration, read-out: Solubility): 710 µg/mL
solubility ([2]; pH 4.87, water, 22° C. ± 2° C., reported as free base concentration, read-out: Solubility): 590 µg/mL
solubility ([2]; pH 5.15, water, 22° C. ± 2° C., reported as free base concentration, read-out: Solubility): 240 µg/mL
solubility ([2]; pH 5.17, water, 22° C. ± 2° C., reported as free base concentration, read-out: Solubility): 270 µg/mL
solubility ([2]; pH 5.43, water, 22° C. ± 2° C., reported as free base concentration, read-out: Solubility): 220 µg/mL
solubility ([2]; pH 5.95, water, 22° C. ± 2° C., reported as free base concentration, read-out: Solubility): 120 µg/mL
solubility ([2]; pH 6.31, water, 22° C. ± 2° C., reported as free base concentration, read-out: Solubility): 100 µg/mL
solubility ([2]; pH 6.45, water, 22° C. ± 2° C., reported as free base concentration, read-out: Solubility): 100 µg/mL
solubility ([2]; pH 6.49, water, 22° C. ± 2° C., reported as free base concentration, read-out: Solubility): 80 µg/mL
solubility ([2]; pH 6.72, water, 22° C. ± 2° C., reported as free base concentration, read-out: Solubility): 80 µg/mL
solubility ([2]; pH 8.14, water, 22° C. ± 2° C., reported as free base concentration, read-out: Solubility): 80 µg/mL
solubility ([2]; pH 9.11, water, 22° C. ± 2° C., reported as free base concentration, read-out: Solubility): 80 µg/mL
solubility ([2]; pH 9.59, water, 22° C. ± 2° C., reported as free base concentration, read-out: Solubility): 100 µg/mL
solubility ([2]; pH 9.63, water, 22° C. ± 2° C., reported as free base concentration, read-out: Solubility): 100 µg/mL
solubility ([2]; pH 10.37, water, 22° C. ± 2° C., reported as free base concentration, read-out: Solubility): 270 µg/mL
solubility ([2]; pH 10.85, water, 22° C. ± 2° C., reported as free base concentration, read-out: Solubility): 850 µg/mL
USP def ([3]; Acetonitrile): Insoluble
USP def ([3]; Acetonitrile, listed as Besifloxacin HCL salt): insoluble
USP def ([3]; Acetonitrile, listed as Besifloxacin HCl salt): insoluble
solubility ([3]; Acetonitrile): 12 µg/mL
USP def ([3]; Ethanol): slightly soluble
USP def ([3]; Ethanol, listed as Besifloxacin HCL salt): slightly soluble
USP def ([3]; Ethanol, listed as Besifloxacin HCl salt): slightly soluble
solubility ([3]; Ethanol): 1122 µg/mL
USP def ([3]; Isopropanol): Insoluble
USP def ([3]; Isopropanol, listed as Besifloxacin HCL salt): insoluble
USP def ([3]; Isopropanol, listed as Besifloxacin HCl salt): insoluble
solubility ([3]; Isopropanol): 89 µg/mL
USP def ([3]; Methanol): slightly soluble
USP def ([3]; Methanol, listed as Besifloxacin HCL salt): slightly soluble
USP def ([3]; Methanol, listed as Besifloxacin HCl salt): slightly soluble
solubility ([3]; Methanol): 9898 µg/mL
USP def ([3]; Water): sparingly
Form conversion of excess solid ([4]; equilibrated in organic solvents): no form conversions were observed
USP def ([5]; listed as Besifloxacin HCL salt): sparingly soluble
USP def ([5]; listed as Besifloxacin HCl salt): sparingly soluble
solubility [5]: 10635 µg/mL
SMILES: N[C@@H]1CCCCN(c2c(F)cc3c(=O)c(C(=O)O)cn(C4CC4)c3c2Cl)C1 [besifloxacin HCl salt]
Form conversion in aqueous media [4]: dissolve and precipitate in a different crystalline form
Form conversion in aqueous media ([4]; listed as besifloxacin HCl): convert in aqueous media (pH>4) to a new crystalline phase
Form conversion of excess solid ([4]; aqueous pH solubility samples, pHs>3.5-4.0): converted to a different crystalline phase

Hygroscopicity / moisture sorption behaviour ([1]; listed as Besifloxacin free base): sorbed moisture at all RH conditions
Moisture sorbed ([1]; 90% RH): up to 5 % w/w
solubility ([2]; 22 °C, pH 6.5 (product pH), read-out: Solubility in aqueous media): ~100 µg/mL (≈ 254 µM)
USP def [3, 7]: Insoluble
solubility [3, 7]: 5 µg/mL (≈ 12.7 µM)
USP def ([3]; Ethanol, listed as Free base): Insoluble
solubility ([3]; Ethanol, listed as Free base): 33 µg/mL (≈ 83.8 µM)
USP def [3, 8]: Insoluble
solubility [3, 8]: 4 µg/mL (≈ 10.2 µM)
USP def ([3]; Methanol, listed as Free base): Very slightly
solubility ([3]; Methanol, listed as Free base): 135 µg/mL (≈ 343 µM)
USP def ([5]; listed as Free base): Insoluble
solubility ([5]; listed as Free base): 79 µg/mL
SMILES: N[C@@H]1CCCCN(c2c(F)cc3c(=O)c(C(=O)O)cn(C4CC4)c3c2Cl)C1 [besifloxacin free base, (R)-(+)-7-(3-amino-2,3,4,5,6,7-hexahydro-1H-azepin-1-yl)-1-cyclopropyl-8-chloro-6-fluoro-1,4-dihydro-4-oxoquinoline-3-carboxylic acid]

Solubility description of the zwitterion ([2]; aqueous, pH 5.5-9.0): very slightly soluble
Solubility of the zwitterion ([2]; aqueous, pH range 5.5-9.0): ~100 µg/mL
solubility ([2]; 22 °C, aqueous, pH 3, read-out: Maximum solubility as a function of pH): ~10000 µg/mL (≈ 25400 µM)
solubility ([2]; 22 °C, aqueous, pH range 5.5-9.0, read-out: Solubility of the zwitterion): ~100 µg/mL (≈ 254 µM)
solubility ([6]; distilled water (pH adjusted with 1 N NaOH), assumed in fit of pH-solubility profile, read-out: Intrinsic solubility): 74 µg/mL (≈ 188 µM)
solubility ([6]; distilled water, pH adjusted with 1 N NaOH, fit of pH-solubility profile, total of zwitterionic and neutral species, read-out: Intrinsic solubility (So)): 74 µg/mL (≈ 188 µM)
pKa ([6]; read-out: pKa of the carboxylic acid group (pKa1)): 5.65
pKa ([6]; read-out: pKa of the primary amine (ammonium) group (pKa2)): 9.91
SMILES: N[C@@H]1CCCCN(c2c(F)cc3c(=O)c(C(=O)O)cn(C4CC4)c3c2Cl)C1 [besifloxacin, (R)-(+)-7-(3-amino-2,3,4,5,6,7-hexahydro-1H-azepin-1-yl)-1-cyclopropyl-8-chloro-6-fluoro-1,4-dihydro-4-oxoquinoline-3-carboxylic acid]
